Legend:
[1] = molecular target: human A2a adenosine receptor (Homo sapiens (Human), UniProt P29274); assay: A2a receptor affinity radioligand binding assay ([3H] SCH58261, membranes from HEK293 or CHO cells); conditions: for IC50: unstarred values: radioligand binding
Protocol: The A2a receptor affinity binding assay measured the amount of binding of a tritiated ligand with high affinity for the A2a adenosine receptor to membranes made from HEK293 or CHO cells recombinantly expressing the human A2a adenosine receptor, in the presence of varying concentrations of a compound of the invention.
Measurement of A2a Binding Affinity Using Radioligand Binding
148 μL, (5 μg/mL) membranes (Perkin Elmer, Cat. No. RBHA2aM4001A) and 2 μL compounds of the invention to be tested (test compound) were transferred to individual wells of a 96-well polypropylene assay plate and incubated for 15 to 30 minutes at room temperature. [^3H] SCH58261 ((7-(2-phenylethyl)-5-amino-2-(2-furyl)-pyrazolo-[4,3-e]-1,2,4-triazolo[1,5-c]pyrimidine)) was diluted in assay buffer (50 mM Tris pH 7.4, 10 mM MgCl2, 0.005% Tween20) to a concentration of 4 nM and 50 μL transferred to each well of the assay plate. […] The assay plate was incubated at room temperature for 60 minutes with agitation. […] Filtering was achieved by aspirating the contents of the assay plate for 5 seconds, then washing and aspirating the contents three times with ice-cooled wash buffer (50 mM Tris-HCl pH 7.4, 150 mM NaCl) and allowing the vacuum manifold to dry the plate for 30 seconds. The filter plate was incubated for at least 1 hour at 55° C. and allowed to dry. The bottom of the filter plate was sealed with backing tape. 40 μL. […] The plate was incubated for at least 20 minutes, and then the amount of radioactivity remaining in each well was determined using a TopCown® (Perkin Elmer) scintillation counter. After normalization to total and non-specific binding, the percent effect at each compound concentration was calculated. The plot of percent effect versus the log of compound concentration was analyzed electronically using a 4-parameter logistic fit based on the Levenberg-Marquardt algorithm to generate IC50 values.

[2] = molecular target: human A2b adenosine receptor (Homo sapiens (Human), UniProt P29275); assay: A2b radioligand filtration binding assay (tritiated proprietary A2b antagonist, HEK293 membranes); conditions: for IC50: unstarred values: radioligand binding; for A2B binding % inh. @ 10000 nM: unstarred
Protocol: Measurement of A2b Binding Affinity
The reported affinity of the compounds of the invention for the human A2b adenosine receptor was determined experimentally using a radioligand filtration binding assay. This assay measures the amount of binding of a tritiated proprietary A2b receptor antagonist, in the presence and absence of a compound of the invention, to membranes made from HEK293 cells recombinantly expressing the human A2b adenosine receptor (Perkin Elmer, Cat. No. ES-013-C).
The filter plate was incubated for at least 1 hour at 55° C. and allowed to dry. The bottom of the filter plate was then sealed with backing tape. […] The plates were then incubated for at least 20 minutes, and then the amount of radioactivity remaining in each well was determined using a TopCount® (Perkin Elmer) scintillation counter. After normalization to total and non-specific binding, the percent effect at each compound concentration was calculated. The plot of percent effect versus the log of compound concentration was analyzed electronically using a 4-parameter logistic fit based on the Levenberg-Marquardt algorithm to generate IC50 values.

Chain of human A2a adenosine receptor (P29274 whole entry): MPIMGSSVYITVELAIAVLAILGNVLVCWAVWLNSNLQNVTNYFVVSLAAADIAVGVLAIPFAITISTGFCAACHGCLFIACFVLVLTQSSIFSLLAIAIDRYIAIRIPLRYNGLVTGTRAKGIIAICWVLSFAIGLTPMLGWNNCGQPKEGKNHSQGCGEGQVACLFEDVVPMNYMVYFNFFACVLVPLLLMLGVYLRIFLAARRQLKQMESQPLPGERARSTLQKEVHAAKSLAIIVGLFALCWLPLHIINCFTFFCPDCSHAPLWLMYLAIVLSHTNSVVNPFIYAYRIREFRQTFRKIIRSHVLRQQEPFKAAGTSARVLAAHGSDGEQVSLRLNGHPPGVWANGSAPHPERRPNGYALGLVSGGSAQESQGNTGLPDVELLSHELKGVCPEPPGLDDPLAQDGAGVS
Chain of human A2b adenosine receptor (P29275 whole entry): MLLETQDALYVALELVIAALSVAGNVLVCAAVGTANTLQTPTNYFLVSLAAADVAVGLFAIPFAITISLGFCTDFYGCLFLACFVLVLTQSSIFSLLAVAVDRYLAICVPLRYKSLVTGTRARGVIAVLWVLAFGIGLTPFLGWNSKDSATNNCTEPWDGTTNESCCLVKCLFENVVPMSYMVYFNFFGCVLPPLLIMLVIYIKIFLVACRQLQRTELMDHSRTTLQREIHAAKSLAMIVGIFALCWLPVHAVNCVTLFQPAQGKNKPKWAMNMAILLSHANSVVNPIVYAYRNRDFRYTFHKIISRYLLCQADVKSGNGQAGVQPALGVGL

Row | Structure (SMILES) | IC50 [1] [nM] | IC50 [2] [nM] | A2A binding % inh. @ 10000 nM ([1]; @ 10000 nM, unstarred) [% inh. @ 10000 nM] | A2B binding % inh. @ 10000 nM [2] [% inh. @ 10000 nM]
1 | COc1cccc2c1nc(N)n1nc([C@H]3CCC4CCC3N4c3cnn(C)c3)nc21 (mixture of isomers) [Example 130A] | 5.8 | 7020 | – | –
2 | COc1cccc2c1nc(N)n1nc([C@@H]3CCC4CCC3N4c3cnn(C)c3)nc21 (mixture of isomers) [Example 130B] | 10.3 | 3520 | – | –
3 | COc1cccc2c1nc(N)n1nc(C3CCC[C@@](O)(c4cnn(C)c4)C3)nc21 (mixture of isomers) [Example 134B] | 1 | 76.7 | – | –
4 | COc1cccc2c1nc(N)n1nc([C@@H]3CCCN(c4cnn(C5CCOC5)c4)C3)nc21 (single isomer, unassigned) [Example 57A] | 0.4 | 70.5 | – | –
5 | COc1cccc2c1nc(N)n1nc([C@@H]3CCCN(c4cnn(C5CCOC5)c4)C3)nc21 (single isomer, unassigned) [Example 57B] | 0.3 | 89.3 | – | –
6 | COc1cccc2c1nc(N)n1nc([C@@H]3CCCN(c4cnn(C5CCCC5O)c4)C3)nc21 (single isomer, unassigned) [Example 58B] | 0.2 | 34.9 | – | –
7 | COc1cccc2c1nc(N)n1nc([C@@H]3CCCN(c4cnn(C5CCCC5(C)O)c4)C3)nc21 (single isomer, unassigned) [Example 59A] | 0.4 | 6.3 | – | –
8 | COc1cccc2c1nc(N)n1nc([C@@H]3CCCN(c4cnn(C5CCCC5(C)O)c4)C3)nc21 (single isomer, unassigned) [Example 59B] | 0.3 | 1.7 | – | –
9 | COc1cccc2c1nc(N)n1nc([C@@H]3CCCN(c4cnn(C5CCC5O)c4)C3)nc21 (single isomer, unassigned) [Example 60A] | 1.8 | 281 | – | –
10 | COc1cccc2c1nc(N)n1nc([C@@H]3CCCN(c4cnn(C5CCC5O)c4)C3)nc21 (single isomer, unassigned) [Example 60B] | 2 | 181 | – | –
11 | COc1cccc2c1nc(N)n1nc([C@@H]3CCCN(c4cnn(C(C)C(C)(C)O)c4)C3)nc21 (single isomer, unassigned) [Example 61A] | 0.2 | 45.2 | – | –
12 | COc1cccc2c1nc(N)n1nc([C@@H]3CCCN(c4cnn(C(C)C(C)(C)O)c4)C3)nc21 (single isomer, unassigned) [Example 61B] | 0.4 | 84 | – | –
13 | COc1cccc2c1nc(N)n1nc(C3CCC[C@](O)(c4cnn(C)c4)C3)nc21 (single isomer, unassigned) [Example 134A] | 61.8 | 7750 | – | –
14 | COc1cccc2c1nc(N)n1nc([C@@H]3CCC[C@](O)(c4cnn(CC(C)(C)O)c4)C3)nc21 (single isomer, unassigned) [Example 135, (1R, 3R or 1S,3S)-3-(5-amino-7-methoxy-[1,2,4]triazolo[1,5-c]quinazolin-2-yl)-1-(1-(2-hydroxy-2-methylpropyl)-1H-pyrazol-4-yl)cyclohexan-1-ol] | 1.3 | 168 | – | –
15 | COc1cccc2c1nc(N)n1nc([C@H]3CCC[C@@H](c4cnn(C)c4)C3)nc21 (single isomer, unassigned) [Example 136C] | 1.2 | 157 | – | –
16 | COc1cccc2c1nc(N)n1nc([C@@H]3CCC[C@H](c4cnn(CC(C)(C)O)c4)C3)nc21 (single isomer, unassigned) [Example 137, 1-(4-((1S,3R or 1R,3S)-3-(5-amino-7-methoxy-[1,2,4]triazolo[1,5-c]quinazolin-2-yl)cyclohexyl)-1H-pyrazol-1-yl)-2-methylpropan-2-ol] | 120 | 8650 | – | –
17 | CCn1cc(N2C[C@@H](c3nc4c5cccc(OC)c5nc(N)n4n3)CC[C@H]2C)cn1 (single isomer, unassigned) [Example 140A] | 66.8 | 5510 | – | –

Other lines, results leading:

Row | IC50 [1] [nM] | IC50 [2] [nM] | A2A binding % inh. @ 10000 nM ([1]; @ 10000 nM, unstarred) [% inh. @ 10000 nM] | A2B binding % inh. @ 10000 nM [2] [% inh. @ 10000 nM] | Structure (SMILES)
18 | 3.4 | 425 | – | – | COc1cccc2c1nc(N)n1nc(C3CCCC(c4cnn(CC(C)(C)O)c4)C3)nc21 (single isomer, unassigned) [Example 138]
19 | 1 | 12 | – | – | COc1cccc2c1nc(N)n1nc(C3CCC(C)N(c4cnn(C5CC5)c4)C3)nc21 (single isomer, unassigned) [Example 141C]
20 | 0.5 | 16.2 | – | – | COc1cccc2c1nc(N)n1nc(C3CCC(C)N(c4cnn(CC(C)(C)O)c4)C3)nc21 (single isomer, unassigned) [Example 143D]
21 | 0.8 | 4.6 | – | – | COc1cccc2c1nc(N)n1nc(C3CCC(C)N(c4cnn(C(C)(C)CO)c4)C3)nc21 (single isomer, unassigned) [Example 146D]
22 | 3.9 | 779 | – | – | COc1cccc2c1nc(N)n1nc([C@@H]3CC[C@H](C)N(c4cnn(C(C)C(C)(C)O)c4)C3)nc21 (single isomer, unassigned) [Example 147C]
23 | 0.7 | 512 | – | – | COc1cccc2c1nc(N)n1nc(C3CN(c4cnn(CC5(O)CCC5)c4)CC(F)(F)C3)nc21 (single isomer, unassigned) [Example 157B, (R or S)-1-((4-(5-(5-amino-7-methoxy-[1,2,4]triazolo[1,5-c]quinazolin-2-yl)-3,3-difluoropiperidin-1-yl)-1H-pyrazol-1-yl)methyl)cyclobutan-1-ol]
24 | 0.4 | 526 | – | – | COc1cccc2c1nc(N)n1nc(C3CN(c4cn(CC(C)(C)O)nc4C)CC(F)(F)C3)nc21 (single isomer, unassigned) [Example 158B, (R or S)1-(4-(5-(5-amino-7-methoxy-[1,2,4]triazolo[1,5-c]quinazolin-2-yl)-3,3-difluoropiperidin-1-yl)-3-methyl-1H-pyrazol-1-yl)-2-methylpropan-2-ol]
25 | 0.1 | 792 | – | – | COc1cccc2c1nc(N)n1nc(C3CN(c4cnn(CC(C)(C)O)c4C)CC(F)(F)C3)nc21 (single isomer, unassigned) [Example 159B, (R or S)-1-(4-(5-(5-amino-7-methoxy-[1,2,4]triazolo[1,5-c]quinazolin-2-yl)-3,3-difluoropiperidin-1-yl)-5-methyl-1H-pyrazol-1-yl)-2-methylpropan-2-ol]
26 | – | – | 19 | 10 | Cn1cc(N2CCCC(c3nc4c5cccc(O)c5nc(N)n4n3)C2)cn1 (single isomer, unassigned) [Example 165, (R or S)-5-amino-2-(1-(1-methyl-1H-pyrazol-4-yl)piperidin-3-yl)-[1,2,4]triazolo[1,5-c]quinazolin-7-ol]
27 | 18 | 234 | – | – | COc1ccc2c(nc(N)n3nc(C4CCCN(c5cnn(C)c5)C4)nc23)c1F (single isomer, unassigned) [Example 166, (R or S)-7-fluoro-8-methoxy-2-(1-(1-methyl-1H-pyrazol-4-yl)piperidin-3-yl)-[1,2,4]triazolo[1,5-c]quinazolin-5-amine]
28 | 14.1 | 117 | – | – | Cc1ccc2c(nc(N)n3nc(C4CCCN(c5cnn(C)c5)C4)nc23)c1C (single isomer, unassigned) [Example 167, (R or S)-7,8-dimethyl-2-(1-(1-methyl-1H-pyrazol-4-yl)piperidin-3-yl)-[1,2,4]triazolo[1,5-c]quinazolin-5-amine]
29 | 17.4 | 150 | – | – | Cn1cc(N2CCCC(c3nc4c5ccc(F)cc5nc(N)n4n3)C2)cn1 (single isomer, unassigned) [Example 168, (R or S)-8-fluoro-2-(1-(1-methyl-1H-pyrazol-4-yl)piperidin-3-yl)-[1,2,4]triazolo[1,5-c]quinazolin-5-amine]
30 | 7.7 | 4160 | – | – | Cn1cc(N2CCCC(c3nc4c5c(Cl)ccc(Cl)c5nc(N)n4n3)C2)cn1 (single isomer, unassigned) [Example 169, (R or S)-7, 10-dichloro-2-(1-(1-methyl-1H-pyrazol-4-yl)piperidin-3-yl)-[1,2,4]triazolo[1,5-c]quinazolin-5-amine]
31 | 204 | – | – | 28 | Cn1cc(N2CCCC(c3nc4c5c(C(F)(F)F)cccc5nc(N)n4n3)C2)cn1 (single isomer, unassigned) [Example 170, (R or S)-2-(1-(1-methyl-1H-pyrazol-4-yl)piperidin-3-yl)-10-(trifluoromethyl)-[1,2,4]triazolo[1,5-c]quinazolin-5-amine]

From US12263171B2, “7-, 8-, and 10-substituted amino triazolo quinazoline derivatives as adenosine receptor antagonists, pharmaceutical compositions and their use” (Merck Sharp & Dohme LLC, priority 2018, dated 2025)
